Assay results as given in PMC3794971, “Functional and Genetic Characterization of Neuropeptide Y-Like Receptors in Aedes aegypti” (PLoS Neglected Tropical Diseases, 2013).
Square brackets hold non-standard residues; d marks the D form. Peptide text beside a SMILES is read from it. Hyp = O=C(O)[C@@H]1C[C@@H](O)CN1; pGlu = O=C1CC[C@@H](C(=O)O)N1

Key:
Ae. aegypti NPYLR1 = molecular target: T1, Ae. aegypti NPYLR1 (Aedes aegypti, UniProt U5N0U1); assay: HEK293T cell-based calcium imaging assay, Ae. aegypti NPYLR1; conditions: for EC50: HEK293T cells transiently co-transfected with receptor and murine Gqα15, Fura-2 calcium imaging, eight responding cells per plate, three independent transfections, normalized to highest response
T1 sequence (U5N0U1 1-529): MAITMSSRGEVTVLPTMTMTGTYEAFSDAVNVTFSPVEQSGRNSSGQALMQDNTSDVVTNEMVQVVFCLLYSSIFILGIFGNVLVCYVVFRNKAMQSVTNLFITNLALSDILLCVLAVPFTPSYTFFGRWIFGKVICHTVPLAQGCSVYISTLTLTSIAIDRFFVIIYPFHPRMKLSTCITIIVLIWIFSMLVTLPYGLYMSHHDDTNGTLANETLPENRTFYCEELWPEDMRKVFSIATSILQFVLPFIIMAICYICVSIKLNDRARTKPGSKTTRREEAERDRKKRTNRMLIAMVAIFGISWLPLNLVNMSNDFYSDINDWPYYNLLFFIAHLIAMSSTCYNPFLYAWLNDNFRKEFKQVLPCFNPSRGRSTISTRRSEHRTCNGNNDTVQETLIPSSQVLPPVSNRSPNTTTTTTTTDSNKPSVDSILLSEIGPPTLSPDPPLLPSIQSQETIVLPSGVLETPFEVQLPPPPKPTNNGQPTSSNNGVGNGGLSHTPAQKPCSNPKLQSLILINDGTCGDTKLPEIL
Description: The variant alleles of NPYLR1 (alleles A–D) and NPYLR7 (alleles A–B) were tested in the cell-based assay as follows: NPYLR1A, NPYLR7A, and NPYLR7B were tested against the entire panel of peptides. NPYLR1B, NPYLR1C, and NPYLR1D were tested against Head Peptide-I and sNPF-3 only.

A.gam-sNPFR = molecular target: T2, A.gam-sNPFR (Anopheles gambiae, UniProt A0SIF2); conditions: earlier reports, not this paper's assay; cited from earlier work
T2 sequence (A0SIF2 1-575): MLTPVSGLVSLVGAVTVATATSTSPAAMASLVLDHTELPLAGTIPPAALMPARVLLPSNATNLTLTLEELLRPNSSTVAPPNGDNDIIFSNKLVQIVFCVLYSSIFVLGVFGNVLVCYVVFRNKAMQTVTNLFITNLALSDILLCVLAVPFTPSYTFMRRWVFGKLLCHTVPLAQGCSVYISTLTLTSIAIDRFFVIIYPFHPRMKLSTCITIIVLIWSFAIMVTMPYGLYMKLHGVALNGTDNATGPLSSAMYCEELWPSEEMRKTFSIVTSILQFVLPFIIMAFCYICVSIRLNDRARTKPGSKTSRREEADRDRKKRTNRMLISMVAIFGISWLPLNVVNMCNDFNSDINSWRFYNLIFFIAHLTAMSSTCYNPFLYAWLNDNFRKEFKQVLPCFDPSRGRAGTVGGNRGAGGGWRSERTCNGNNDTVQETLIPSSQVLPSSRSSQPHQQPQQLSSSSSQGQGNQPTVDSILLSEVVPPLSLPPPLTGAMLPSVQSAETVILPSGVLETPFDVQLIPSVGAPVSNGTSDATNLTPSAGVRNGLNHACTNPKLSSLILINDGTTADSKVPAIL
Source text: (§1) Ae. aegypti NPYLR1 is homologous to the sNPF receptors (sNPFR) of D. melanogaster, [24] and An. gambiae. […] We have no explanation for these discrepancies, but note that since D ...

D.mel-sNPFR [1] = molecular target: T3, D.mel-sNPFR (Drosophila melanogaster, UniProt Q9VW75); conditions: earlier reports, not this paper's assay; cited from earlier work
T3 sequence (Q9VW75 1-600): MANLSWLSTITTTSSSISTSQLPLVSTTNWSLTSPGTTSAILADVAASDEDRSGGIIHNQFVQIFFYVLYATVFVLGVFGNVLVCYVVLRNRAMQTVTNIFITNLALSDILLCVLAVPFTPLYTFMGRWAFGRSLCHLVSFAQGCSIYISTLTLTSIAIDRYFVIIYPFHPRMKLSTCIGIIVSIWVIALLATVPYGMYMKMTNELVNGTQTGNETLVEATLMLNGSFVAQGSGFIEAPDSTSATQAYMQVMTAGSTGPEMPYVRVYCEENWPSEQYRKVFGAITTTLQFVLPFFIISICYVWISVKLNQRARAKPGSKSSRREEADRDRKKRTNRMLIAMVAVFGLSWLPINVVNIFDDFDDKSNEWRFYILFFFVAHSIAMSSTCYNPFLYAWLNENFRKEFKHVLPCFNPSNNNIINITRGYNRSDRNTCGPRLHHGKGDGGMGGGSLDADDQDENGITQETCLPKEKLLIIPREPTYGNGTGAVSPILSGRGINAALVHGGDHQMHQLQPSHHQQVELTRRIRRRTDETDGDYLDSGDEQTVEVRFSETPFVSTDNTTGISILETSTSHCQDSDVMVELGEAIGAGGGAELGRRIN
Source text: as §1

[2] = system: Ae. aegypti female mosquitoes; conditions: earlier report; cited from earlier work
Description: At least two mechanisms for host-seeking inhibition have been proposed. First, abdominal distension triggered by blood ingestion is communicated through the ventral nerve cord to inhibit host attraction for approximately 24 hours [7](Figure 1B). Second, a humoral substance discovered in hemolymph at 48 hours after a blood meal is capable of suppressing host-seeking behavior when injected into non-blood-fed females [4](Figure 1B).

D.mel-sNPFR [3] = molecular target: T3, D.mel-sNPFR; assay: HEK293T cell-based calcium imaging assay, D.mel-sNPFR; conditions: HEK293T + murine Gqα15, Fura-2 calcium imaging
Description: (§2) HEK293T cells were cultured using standard protocols in a Thermo Scientific FORMA Series II – Water Jacketed CO2 incubator (Waltham, MA, USA). Lipofectamine 2000 (Invitrogen) was used for transient transfection of 1 µg pME18S>Candidate receptor and 1 µg pME18S>murine Gqα15 [14]. Transfected cells were loaded with the calcium sensitive dye Fura-2 (Invitrogen) according to product instructions. Cells were imaged on a Nikon Eclipse TE-2000-U microscope (Melville, NY, USA) using fluorescent excitation from a Lambda DG-4 (Sutter Instruments Co., Novato, CA, USA). Bath application of ∼300 µl solutions containing peptides diluted in Ringer's solution (0.14 M NaCl, 5.6 mM KCl, 5 mM HEPES, 2 mM pyruvic acid, 2 mM CaCl2, 2 mM MgCl2, 0.15% Glucose, 1.25 mM KH2PO4, pH 7.4) were delivered using a diaphragm pump (Gilson Minipuls3, Middleton, WI, USA) with real-time recording and analysis in Metafluor software (Version 7.1.2.0; Molecular Devices, Sunnyvale, CA, USA). Data from a complete peptide dilution series were collected from eight responding cells within each plate of three independent transfections. Data were normalized by setting the highest fluorescent response within each experiment to 100%.
We also used human Neuropeptide Y (NPY) and Peptide YY (PYY) [23](Figure 2B). […]

[4] = system: Ae. aegypti female mosquitoes; assay: Host-seeking behavior in uniport olfactometer after peptide injection; assay type: in vivo, Aedes aegypti; conditions: non-blood-fed females, 200 nl of 4 and 10 mM peptide injected into abdomen, tested after one hour; n = 6, ~20 females per trial
Source text: The uniport olfactometer was custom built by Vadim Sherman in the Rockefeller University High Energy Physics Instrument Shop. Approximately 15-25 female mosquitoes aged 5 to 14 days were placed within loaders, which are small plastic cylinders with mesh covering both openings and a sliding door on one end obtained from the World Health Organization Vector Control Research Unit ([…], Malaysia). […] were attached to one end of a 1 m long plastic tube ([…]) that led to an “attraction trap” (14 cm long, 5 cm diameter), followed by a sealed chamber into which a human volunteer inserted a hand or forearm (see image in Figure 1A for the configuration with a hand stimulus). Humidified room air was carbon-filtered (Donaldson Ultrac-A, Bloomington, MN), supplemented to a final concentration of 5% CO2 using flow-meters (Cole Parmer, catalogue #023-92-ST, Vernon Hills, IL), and passed over the hand or forearm of the volunteer into the olfactometer at 3.8 L/min. Mosquito loaders were attached to the olfactometer and given 5 minutes to acclimatize to air-flow prior to a 5 minute host-seeking test. Mosquitoes were scored as attracted if they flew upwind through the 1 m tube and into the “attraction trap” within the allotted time. Solutions of Head Peptide-I, sNPF-3 and Head Peptide-I [[…]] were dissolved in saline (0.1M NaCl, 4 mM KCl, 2 mM CaCl2) at a concentration of 4 and 10 mM for injection. ∼20 female mosquitoes aged 5 to 14 days were anesthetized on ice for 3 min, moved individually onto a chill-plate (BioQuip catalogue #1429, Rancho Dominguez, CA, USA), and injected with 200 nl of desired solution using a Drummond Nanoject II (Drummond catalogue # 3-000-204, Broomall, PA, USA) attached to 3.5'' needles (Drummond, catalogue #3-000-203-G/X) shaped on a needle puller (Sutter Instruments Co., Model P-97). Solutions were injected into the abdomen by piercing the second abdominal […] from the ovipositor. Injected mosquitoes were placed in loaders and allowed one hour to recover from injection before being tested for host-seeking behavior in the uniport olfactometer.

Ae. aegypti NPYLR7 = assay: HEK293T cell-based calcium imaging assay, Ae. aegypti NPYLR7; set-up: species or system Aedes aegypti; conditions: HEK293T + murine Gqα15, Fura-2 calcium imaging; NPYLR7B allele responded, NPYLR7A did not
Description: as §2
NPYLR1B, NPYLR1C, and NPYLR1D were tested against Head Peptide-I and sNPF-3 only. […]

| Molecule | EC50 (Ae. aegypti NPYLR1) [nM] | Host-seeking behavior activity of injected peptide [2] | Host-seeking behavior (percent attraction to human host stimuli) after injection [4] | further results |
| --- | --- | --- | --- | --- |
| CC(C)C[C@H](NC(=O)[C@H](CO)NC(=O)[C@@H]1CCCN1C(=O)[C@@H]1CCCN1C(=O)[C@H](CCCNC(=N)N)NC(=O)[C@@H]1CCC(=O)N1)C(=O)N[C@@H](CCCCN)C(=O)N[C@H](C(=O)N[C@@H](CCCNC(=N)N)C(=O)N[C@@H](Cc1ccccc1)C(N)=O)[C@@H](C)O [Head Peptide-III] ([pGlu]RPPSLKTRF-NH2) | 954 | behaviorally inactive |  | Sensitivity of An. gambiae sNPFR to Head Peptide-III (A.gam-sNPFR): lack sensitivity; Sensitivity of D. melanogaster sNPFR to Head Peptide-III (D.mel-sNPFR [1]): lack sensitivity |
| CC(C)C[C@H](NC(=O)[C@H](CO)NC(=O)[C@@H]1C[C@@H](O)CN1C(=O)[C@@H]1CCCN1C(=O)[C@H](CCCNC(=N)N)NC(=O)[C@@H]1CCC(=O)N1)C(=O)N[C@@H](CCCCN)C(=O)N[C@H](C(=O)N[C@@H](CCCNC(=N)N)C(=O)N[C@@H](Cc1ccccc1)C(N)=O)[C@@H](C)O [Head Peptide-I] ([pGlu]RP[Hyp]SLKTRF-NH2) | 823 | sufficient to inhibit host-seeking behavior | inhibition of host-seeking behavior | EC50 (D.mel-sNPFR [3]): 1000 nM |
| CC(C)C[C@H](NC(=O)[C@H](CCCNC(=N)N)NC(=O)[C@H](CC(C)C)NC(=O)[C@H](CO)NC(=O)[C@@H]1CCCN1C(=O)[C@@H](N)CO)C(=O)N[C@@H](CCCNC(=N)N)C(=O)N[C@@H](Cc1ccccc1)C(N)=O [sNPF-1(4-11)] (H-SPSLRLRF-NH2) | 44 |  |  |  |
| CC(C)C[C@H](NC(=O)[C@H](CCCNC(=N)N)NC(=O)[C@H](CC(C)C)NC(=O)[C@H](CO)NC(=O)[C@@H]1CCCN1C(=O)[C@H](CO)NC(=O)[C@H](CCCNC(=N)N)NC(=O)[C@@H](NC(=O)[C@H](C)NC(=O)[C@@H](N)CCCCN)C(C)C)C(=O)N[C@@H](CCCNC(=N)N)C(=O)N[C@@H](Cc1ccccc1)C(N)=O [sNPF-1] (H-KAVRSPSLRLRF-NH2; N-terminus assumed) | 55 |  |  | EC50 (Ae. aegypti NPYLR7): 0.634 µM |
| CC(C)C[C@H](NC(=O)[C@H](CCCNC(=N)N)NC(=O)[C@H](CC(C)C)NC(=O)[C@H](CCC(N)=O)NC(=O)[C@@H]1CCCN1C(=O)[C@H](C)N)C(=O)N[C@@H](CCCNC(=N)N)C(=O)N[C@@H](Cc1ccccc1)C(N)=O [sNPF-2+4] (H-APQLRLRF-NH2) | 35 |  |  |  |
| CC(C)C[C@H](NC(=O)[C@H](CCCNC(=N)N)NC(=O)[C@H](CCC(N)=O)NC(=O)[C@H](CO)NC(=O)[C@@H]1CCCN1C(=O)[C@H](C)N)C(=O)N[C@@H](CCCNC(=N)N)C(=O)N[C@@H](Cc1c[nH]c2ccccc12)C(N)=O [sNPF-3] (H-APSQRLRW-NH2; N-terminus assumed) | 75 |  | inhibited host-seeking behavior | Sensitivity of NPYLR1 to sNPF-3 relative to Head Peptide-I (Ae. aegypti NPYLR1; cell-based assay): ten times more sensitive; EC50 (Ae. aegypti NPYLR7): 6 µM |
| pERPhPSLKTRC [Head Peptide-I [Cys10]] |  | inactive | had no effect | Calcium response of NPYLR1 (Ae. aegypti NPYLR1; concentrations up to 50 µM, HEK293T + murine Gqα15, Fura-2): no response |
